Results on 29 compounds are retold here after patent US20230045421A1 (priority 2018, published 2023).

For the first experiment, the system named is HBV rcDNA. The experiment can be described thus: HepDE19 assay with bDNA quantitation of HBV rcDNA. The class given is cell-based, hepatitis B virus. The settings on record: HepDE19 assay, inhibition of formation of rcDNA; read-out: DE-19bDNA EC50. In outline:
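HepDE19 cells (HepG2-derived, Tet-regulated HBV replication) were deprived of tetracycline and then exposed to compounds for 7 days at 37 °C in 0.5% DMSO, 8-point titration from 25 μM. rcDNA was quantified by bDNA and EC50/EC90 came from 4-parameter fits. CC50 was measured by CellTiter-Glo ATP content on replicate plates after 4 days.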
Regarding `CC(c1c[nH]c(=O)c2ccccc12)N(CCS(N)(=O)=O)C(=O)Nc1ccc(F)c(Cl)c1` (single isomer, unassigned) [Compound 120, 2-(3-(3-Chloro-4-fluorophenyl)-1-(1-(1-oxo-1,2-dihydroisoquinolin-4-yl)ethyl)ureido) ethanesulfonamide], the EC50 – broadly, the concentration that produces a half-maximal response – was found to be 18 µM.
The same measure, in the same setting: as for `CC(c1c[nH]c(=O)c2ccccc12)N(CC[C@@H](C)O)C(=O)Nc1ccc(F)c(Cl)c1` (single isomer, unassigned) [Compound 212], the figure is 0.02 µM; as for `CC(c1c[nH]c(=O)c2ccccc12)N(CC1CCCC1)C(=O)Nc1ccc(F)c(Cl)c1` (single isomer, unassigned) [Compound 192, 3-(3-Chloro-4-fluorophenyl)-1-(cyclopentylmethyl)-1-(1-(1-oxo-1,2-dihydroisoquinolin-4-yl)ethyl)urea], 0.42 µM; as for `CCN(C(=O)Nc1ccc(F)c(Cl)c1)C(c1cnc(OC)c2ccccc12)C1CC1` (single isomer, unassigned) [Compound 58, 3-(3-Chloro-4-fluorophenyl)-1-(cyclopropyl(1-methoxyisoquinolin-4-yl)methyl)-1-ethylurea], 3.5 µM.
In the case of `COCCCN(C(=O)Nc1ccc(F)c(Cl)c1)C(C)c1cnc(OC)c2ccccc12` (single isomer, unassigned) [Compound 81, 3-(3-Chloro-4-fluorophenyl)-1-(1-(1-methoxyisoquinolin-4-yl)ethyl)-1-(3-methoxypropyl)urea], the EC50 was 8.6 µM.

Still in this experiment, the particulars now being: HepDE19 assay, inhibition of formation of relaxed circular DNA (rcDNA), bDNA quantitation; read-out: DE-19bDNA EC50.
In the case of `CCN(C(=O)Nc1ccc(F)c(F)c1)C(C)c1c[nH]c(=O)c2c(F)c(F)ccc12` (single isomer, unassigned) [Compound 462, 1-(1-(7,8-Difluoro-1-oxo-1,2-dihydroisoquinolin-4-yl)ethyl)-3-(3,4-difluorophenyl)-1-ethylurea], the EC50 worked out at 0.92 µM.
With `CC(c1cnc(C(=O)N(C)C)c2ccccc12)N(C)C(=O)Nc1ccc(F)c(Cl)c1` (single isomer, unassigned) [Compound 319, 4-(1-(3-(3-Chloro-4-fluorophenyl)-1-methylureido)ethyl)-N,N-dimethylisoquinoline-1-carboxamide], the EC50 was 0.38 µM.
Consider `CC(c1c[nH]c(=O)c2c(F)cc(F)cc12)N(C)C(=O)Nc1ccc(F)cc1` (single isomer, unassigned) [Compound 370, 1-(1-(6,8-Difluoro-1-oxo-1,2-dihydroisoquinolin-4-yl)ethyl)-3-(4-fluorophenyl)-1-methylurea], for which the EC50 was found to be 5.6 µM.
The same measure, in the same setting: as for `CC(c1cnc(OCc2ncn(C)n2)c2cc(F)c(F)cc12)N(C)C(=O)Nc1ccc(F)c(Cl)c1` (single isomer, unassigned) [Compound 347, 3-(3-Chloro-4-fluorophenyl)-1-(1-(6,7-difluoro-1-((1-methyl-1H-1,2,4-triazol-3-yl)methoxy)isoquinolin-4-yl)ethyl)-1-methylurea], the figure is 0.007 µM.
On the same count and under the same terms, as for `CC(c1c[nH]c(=O)c2c(F)c(F)ccc12)N(C)C(=O)NCc1ccc(F)cc1` (single isomer, unassigned) [Compound 492, 1-(1-(7,8-Difluoro-1-oxo-1,2-dihydroisoquinolin-4-yl)ethyl)-3-(4-fluorobenzyl)-1-methylurea], the figure is 0.84 µM.
The same measure, in the same setting: as for `CCN(C(=O)Nc1ccc(F)c(Cl)c1)C(C)c1c[nH]c(=O)c2c(F)c(F)ccc12` (single isomer, unassigned) [Compound 468, 3-(3-Chloro-4-fluorophenyl)-1-(1-(7,8-difluoro-1-oxo-1,2-dihydroisoquinolin-4-yl)ethyl)-1-ethylurea], the figure is 1.1 µM.
Consider `CC(c1c[nH]c(=O)c2cc(F)c(F)cc12)N(C)C(=O)Nc1ccc(F)c(C#N)c1` (single isomer, unassigned) [Compound 429, 3-(3-Cyano-4-fluorophenyl)-1-(1-(6,7-difluoro-1-oxo-1,2-dihydroisoquinolin-4-yl)ethyl)-1-methylurea], for which the EC50 came to 0.01 µM.
On the same count and under the same terms, as for `CC(c1c[nH]c(=O)c2c(F)c(F)ccc12)N(C)C(=O)NCc1ccc(F)c(F)c1` (single isomer, unassigned) [Compound 490, 1-(1-(7,8-Difluoro-1-oxo-1,2-dihydroisoquinolin-4-yl)ethyl)-3-(3,4-difluorobenzyl)-1-methylurea], the figure is 0.78 µM; as for `CC(c1c[nH]c(=O)c2cc(F)c(F)cc12)N(C)C(=O)Nc1cccc(F)c1F` (single isomer, unassigned) [Compound 431, 1-(1-(6,7-Difluoro-1-oxo-1,2-dihydroisoquinolin-4-yl)ethyl)-3-(2,3-difluorophenyl)-1-methylurea], 0.29 µM; as for `CC(c1c[nH]c(=O)c2c(F)c(F)ccc12)N(CCCO)C(=O)Nc1ccc(F)c(Cl)c1` (single isomer, unassigned) [Compound 335, 3-(3-Chloro-4-fluorophenyl)-1-(1-(7,8-difluoro-1-oxo-1,2-dihydroisoquinolin-4-yl)ethyl)-1-(3-hydroxypropyl)urea], 0.006 µM.

The same experiment, now with this note: Hepatitis B virus, HepDE19, HepDE19 assay, inhibition of formation of rcDNA; read-out: DE-19bDNA EC50.
With `CCCN(Cc1c[nH]c(=O)c2ccccc12)C(=O)Nc1ccc(F)c(Cl)c1` [Compound 28, 3-(3-Chloro-4-fluorophenyl)-1-((1-oxo-1,2-dihydroisoquinolin-4-yl)methyl)-1-propylurea], the EC50 came out at 0.06 µM.
On to `C[C@H](c1c[nH]c(=O)c2ccccc12)N(C)C(=O)Nc1cc(F)c(F)c(F)c1` [Compound 91, (R)-1-Methyl-1-(1-(1-oxo-1,2-dihydroisoquinolin-4-yl)ethyl)-3-(3,4,5-trifluorophenyl)urea], for which the EC50 worked out at 0.16 µM.
Regarding `CN(Cc1c[nH]c(=O)c2ccccc12)C(=O)Nc1ccc(F)c(Cl)c1` [Compound 1, 3-(3-Chloro-4-fluorophenyl)-1-methyl-1-((1-oxo-1,2-dihydroisoquinolin-4-yl)methyl)urea], the EC50 amounted to 0.47 µM.
Still for that read-out and setting: as for `CC(C)CN(C(=O)Nc1ccc(F)c(Cl)c1)C(C)c1cn(CC(F)(F)F)c(=O)c2ccccc12` (racemic) [Compound 229, 3-(3-Chloro-4-fluorophenyl)-1-isobutyl-1-(1-(1-oxo-2-(2,2,2-trifluoroethyl)-1,2-dihydroisoquinolin-4-yl)ethyl)urea], the figure is 0.07 µM; as for `COc1ccc2c(C(C)N(C)C(=O)Nc3ccc(F)c(Cl)c3)c[nH]c(=O)c2c1` (racemic) [Compound 173, 3-(3-Chloro-4-fluorophenyl)-1-(1-(7-methoxy-1-oxo-1,2-dihydroisoquinolin-4-yl)ethyl)-1-methylurea], 0.38 µM.

The same experiment, now with this note: Hepatitis B virus, HepDE19, HepDE19 assay, inhibition of formation of relaxed circular DNA (rcDNA), bDNA quantitation; read-out: DE-19bDNA EC50.
In the case of `CC(c1c[nH]c(=O)c2ccccc12)N(CC(CO)CO)C(=O)Nc1ccc(F)c(Cl)c1` (single isomer, unassigned) [Compound 284, 3-(3-Chloro-4-fluorophenyl)-1-(3-hydroxy-2-(hydroxymethyl)propyl)-1-(1-(1-oxo-1,2-dihydroisoquinolin-4-yl)ethyl)urea], the EC50 came out at 0.092 µM.
The same measure, in the same setting: as for `CC(c1cnc(-n2ccnn2)c2ccccc12)N(C)C(=O)Nc1ccc(F)c(Cl)c1` (racemic) [Compound 354, 1-(1-(1-(1H-1,2,3-triazol-1-yl)isoquinolin-4-yl)ethyl)-3-(3-chloro-4-fluorophenyl)-1-methylurea], the figure is 0.13 µM; as for `CC(c1cnc(C(=O)O)c2ccccc12)N(C)C(=O)Nc1ccc(F)c(Cl)c1` (single isomer, unassigned) [Compound 325, 4-(1-(3-(3-Chloro-4-fluorophenyl)-1-methylureido)ethyl)isoquinoline-1-carboxylic acid], 4.2 µM.
Same read-out and setting: as for `CC(C)CN(C(=O)Nc1ccc(F)c(Cl)c1)C(C)c1c[nH]c(=O)c2cc(F)c(F)cc12` (single isomer, unassigned) [Compound 281, 3-(3-Chloro-4-fluorophenyl)-1-(1-(6,7-difluoro-1-oxo-1,2-dihydroisoquinolin-4-yl)ethyl)-1-isobutylurea], the figure is 0.002 µM.

The experiment is the same for the next values; noted with them: Hepatitis B virus, HepDE19, read-out: DE-19bDNA EC50 (μM), HepDE19 assay, inhibition of formation of rcDNA.
`COCCN(Cc1c[nH]c(=O)c2ccccc12)C(=O)Nc1ccc(F)c(Cl)c1` [Compound 50, 3-(3-Chloro-4-fluorophenyl)-1-(2-methoxyethyl)-1-((1-oxo-1,2-dihydroisoquinolin-4-yl)methyl)urea]: the 50% effective concentration (EC50) came to 0.47 µM.
The same measure, in the same setting: as for `CCN(C(=O)Nc1ccc(F)c(Cl)c1)C(c1c[nH]c(=O)c2ccccc12)C(C)C` (single isomer, unassigned) [Compound 54, 3-(3-Chloro-4-fluorophenyl)-1-ethyl-1-(2-methyl-1-(1-oxo-1,2-dihydroisoquinolin-4-yl)propyl)urea], the figure is 20 µM.

Staying with this experiment, now noted: Hepatitis B virus, HepDE19, read-out: DE-19bDNA EC50 (μM), HepDE19 assay, inhibition of formation of relaxed circular DNA (rcDNA), bDNA quantitation.
Regarding `CC(NC(=O)Nc1ccc(F)c(C#N)c1)c1c[nH]c(=O)c2cc(F)c(F)cc12` (centres unmarked) [Compound 495, 1-(3-Cyano-4-fluorophenyl)-3-(1-(6,7-difluoro-1-oxo-1,2-dihydroisoquinolin-4-yl)ethyl)urea], the EC50 is 0.33 µM.

Still in this experiment, the particulars now being: read-out: DE-19bDNA EC50; HepDE19 assay, inhibition of formation of rcDNA.
In the case of `CCCCN(C(=O)Nc1ccc(F)c(Cl)c1)C(C)c1c[nH]c(=O)c2ccccc12` (single isomer, unassigned) [Compound 83, 1-Butyl-3-(3-chloro-4-fluorophenyl)-1-(1-(1-oxo-1,2-dihydroisoquinolin-4-yl)ethyl)urea], the EC50 was found to be 0.86 µM.
The same measure, in the same setting: with `CC(c1c[nH]c(=O)c2ccccc12)N(CC[C@H](C)O)C(=O)Nc1ccc(F)c(Cl)c1` (single isomer, unassigned) [Compound 213] the figure was 3.6 µM.
